Earlier results, collected in patent US6703390B2, “Sulfur containing dihydrophthalazine antagonists of excitatory amino acid receptors” (Transgenomic, Inc., priority 2000, dated 2004).
Read-outs that look alike come from different tables or passages of the source.

Tests used:
[1] = test system: middle cerebral artery occlusion (MCAO) model of ischemia
[2] = test system: common carotid arteries model of global ischemia; details: compared with the competitive antagonist NBQX

In the case of `CC1=NN=C(c2ccc(N)cc2)c2cc3c(cc2C1)OCO3` [GYKI 52466], the “reduced cortical infarct volumes” value ([1]; given continuously for 2 hours just after occlusion) is given as 68%, the “reduced cortical infarct volumes” value ([1]; given delayed for one hour after occlusion) is given as 48% and the “efficacy in MCAO model of ischemia” value ([1]; given either continuously for 2 hours just after occlusion or delayed for one hour) is given as “effective”. For the same compound, the “efficacy in global ischemia model” value [2] was “as effective as the glutamate site competitive antagonist NBQX”.
